Measurements: the SangsterLogP compilation

Assay: method code SF-AS, from DOI: 10.1111/j.2042-7158.1992.tb05470.x, PMID: 1357140
Details: pH 7.4

CC(C)NC(=S)NS(=O)(=O)c1cnccc1NC1CCCCCC1
logD: 0.96
